Data set [1] concerns Mycobacterium tuberculosis. As to the kind of experiment: Antimycobacterial activity against Mycobacterium tuberculosis H37Rv ATCC 27294 measured after 28 days by MABA method. Type of data set: functional. To be noted: H37Rv ATCC 27294, 672 h.
A short description of data set [2]: Cytotoxicity against HEK293T cells assessed as inhibition of cell viability at 50 ug/ml after 72 hrs by MTT assay relative to control. The class given is toxicity, cell-based, HEK-293T. The settings on record: human, read-out: INH.
Data set [3] is described as follows: Therapeutic index, ratio of compound cytotoxic activity for HEK293T cells to MIC99 for Mycobacterium tuberculosis H37Rv ATCC 27294. Type of data set: cell-based, HEK-293T. The settings on record: human, read-out: TI.

A value given as a limit tells only on which side of the number the result lay.

As to `CCOC(=O)c1c(C)nc2ccc(Cl)cc2c1-c1ccccc1`, the MIC99 in data set [1] turned out to be 76.7 µM.
`c1ccc(-c2cc(-c3ccccc3)c3ccccc3n2)cc1` came in with an MIC99 in data set [1] of 11.1 µM. For the same compound, the cytotoxicity at 72 h, 50 ug/ml in data set [2] worked out at 18.1%.
In data set [1], `COC(=O)c1c(C)nc2ccccc2c1-c1ccccc1` had an MIC99 of 45.1 µM. In addition, the cytotoxicity at 72 h, 50 ug/ml in data set [2] came out at 25.6%.
The corresponding values for `Cc1nc2ccccc2c(-c2ccccc2)c1C(=O)c1ccccc1` are 19.3 µM and 22.1%.
With `CCOC(=O)c1c(C)nc2ccccc2c1-c1ccccc1`, the MIC99 in data set [1] stood at 0.69 µM. In addition, in data set [2], the cytotoxicity at 72 h, 50 ug/ml is 25.6%. In addition, the selectivity ratio in data set [3] is > 250.
In turn, `CCOC(=O)c1c(C)nc2ccccc2c1C` had an MIC99 in data set [1] of 109 µM.
Compound `c1ccc(-c2c3c(nc4ccccc24)CCC3)cc1` returned an MIC99 in data set [1] of 25.5 µM. For the same compound, the cytotoxicity at 72 h, 50 ug/ml in data set [2] turned out to be 30%.
The corresponding values for `Cc1nc2ccccc2c(-c2ccccc2)c1C(=O)Nc1ccc(F)cc1` are 16.8 µM and 12.5%.
Compound `O=C1CC(c2ccccc2)Cc2nc3ccccc3c(-c3ccccc3)c21` (stereo unspecified) had an MIC99 in data set [1] of 35.8 µM.
The compound `Cc1nc2ccccc2c(-c2ccccc2)c1C(=O)NCc1cccc(F)c1` had an MIC99 in data set [1] of 33.8 µM. The MIC99 values of the last two compounds are within 1.5-fold of each other.
Same read-out and setting: the figure for `CC(=O)c1c(C)nc2ccccc2c1-c1ccccc1` is 47.8 µM.
In data set [1], `COc1ccc(NC(=O)c2c(C)nc3ccccc3c2-c2ccccc2)cc1` came in with an MIC99 of 8.48 µM. The cytotoxicity at 72 h, 50 ug/ml in data set [2] worked out at 35.2%.
On to `Cc1nc2ccccc2c(-c2ccccc2)c1C(=O)Nc1ccccn1`, for which the MIC99 in data set [1] turned out to be 73.7 µM.
On the same count and under the same terms, the figure for `COC(=O)c1c(C)nc2ccc(Cl)cc2c1-c1ccccc1` is 80.2 µM.
On to `c1ccc(-c2cc(-c3cccs3)nc3ccccc23)cc1`, for which, in data set [1], the MIC99 stood at 21.8 µM. Besides, in data set [2], the cytotoxicity at 72 h, 50 ug/ml was 25.5%.
The corresponding values for `Cc1nc2ccccc2c(-c2ccccc2)c1C(=O)OC(C)(C)C` are 1.22 µM and 13.6%.
The corresponding values for `CC(=O)c1c(C)nc2ccc(Cl)cc2c1-c1ccccc1` are 10.6 µM and 19.9%.
Take `Cc1nc2ccccc2c(-c2ccccc2)c1C(=O)Nc1ccc(Cl)cc1`: the MIC99 in data set [1] amounted to 17.5 µM. Also, in data set [2], the cytotoxicity at 72 h, 50 ug/ml was found to be 16.3%.
On the same counts, the results for `Cc1nc2ccccc2c(-c2ccccc2)c1C(=O)Nc1ccccc1Br` are 15 µM and 15.6%.
On the same counts, the results for `Cc1nc2ccccc2c(-c2ccccc2)c1C(=O)Nc1ccccc1I` are 3.36 µM and 17.9%.
The corresponding values for `CC1(C)CC(=O)c2c(nc3ccccc3c2-c2ccccc2)C1` are 20.7 µM and 22%.
With `COc1ccccc1CNC(=O)c1c(C)nc2ccccc2c1-c1ccccc1`, the MIC99 in data set [1] is > 65.4 µM.
On the same count and under the same terms, under `O=C1CCCc2nc3ccccc3c(-c3ccccc3)c21` stands 45.7 µM; under `c1ccc(-c2c3c(nc4ccccc24)CCCCC3)cc1`, 45.7 µM.
As to `c1ccc(-c2cc(-c3ccco3)nc3ccccc23)cc1`, the MIC99 in data set [1] stood at 5.75 µM. Also, in data set [2], the cytotoxicity at 72 h, 50 ug/ml was found to be 34%.
On the same counts, the results for `Cc1nc2ccccc2c(-c2ccccc2)c1C(=O)Nc1cccnc1Cl` are 16.7 µM and 11.3%.
The compound `Cc1nc2ccccc2c(-c2ccccc2)c1C(=O)Nc1ccc(Br)cc1` returned an MIC99 in data set [1] of 30.9 µM.
Same read-out and setting: under `Cc1nc2ccccc2c(-c2ccccc2)c1C(=O)NCc1ccccc1` stands 70.9 µM.
The compound `Cc1nc2ccccc2c(-c2ccccc2)c1C(=O)NCc1ccccc1Cl` had an MIC99 in data set [1] of 4.03 µM. For the same compound, the cytotoxicity at 72 h, 50 ug/ml in data set [2] came to 13.6%.
As to `Cc1nc2ccccc2c(-c2ccccc2)c1C(=O)Nc1ccccc1F`, the MIC99 in data set [1] is 35.1 µM. In other words, the double-digit micromolar range.
Still for that read-out and setting: under `Cc1nc2ccccc2c(-c2ccccc2)c1C(=O)NCc1cccc(Cl)c1` stands 64.6 µM.
`CC1CC(=O)c2c(nc3ccccc3c2-c2ccccc2)C1` (stereo unspecified) showed an MIC99 in data set [1] of 21.8 µM. In addition, the cytotoxicity at 72 h, 50 ug/ml in data set [2] was found to be 28%.
The corresponding values for `Cc1nc2ccccc2c(-c2ccccc2)c1C(=O)NCc1ccc(C(C)(C)C)cc1` are 3.82 µM and 35.6%.
On the same counts, the results for `c1ccc(-c2c3c(nc4ccccc24)CCCCCC3)cc1` are 10.9 µM and 31.1%.
As for `c1ccc(-c2c3c(nc4ccccc24)CCCC3)cc1`, the MIC99 in data set [1] worked out at 48.2 µM.
On the same count and under the same terms, under `Cc1nc2ccccc2c(-c2ccccc2)c1C(=O)Nc1ccccc1OC(F)(F)F` stands 29.6 µM; under `Cc1nc2ccccc2c(-c2ccccc2)c1C(=O)Nc1ccccc1Cl`, 33.5 µM.
Consider `Cc1nc2ccc(Cl)cc2c(-c2ccccc2)c1C(=O)c1ccccc1`, for which the MIC99 in data set [1] is 8.73 µM. In data set [2], the cytotoxicity at 72 h, 50 ug/ml came out at 26.1%.
Compound `COc1ccccc1NC(=O)c1c(C)nc2ccccc2c1-c1ccccc1` returned an MIC99 in data set [1] of 67.9 µM.
As to `Cc1nc2ccccc2c(-c2ccccc2)c1C(=O)Nc1ccncc1`, in data set [1], the MIC99 stood at 18.4 µM. Further, in data set [2], the cytotoxicity at 72 h, 50 ug/ml is 12.6%.
On the same counts, the results for `Cc1ccccc1CNC(=O)c1c(C)nc2ccccc2c1-c1ccccc1` are 8.53 µM and 20.6%.
With `Cc1nc2ccccc2c(-c2ccccc2)c1C(=O)Nc1ccccc1`, the MIC99 in data set [1] worked out at 9.23 µM. The cytotoxicity at 72 h, 50 ug/ml in data set [2] worked out at 25.6%.
In the case of `CC[C@@H](CO)NCCN[C@@H](CC)CO` [ETHAMBUTOL], the MIC99 in data set [1] was 1.56 µg/mL.
The same measure, in the same setting: under `NNC(=O)c1ccncc1` [ISONIAZID] stands 0.098 µg/mL; under `NC(=O)c1cnccn1` [PYRAZINAMIDE], 6.25 µg/mL.
Still for that read-out and setting: the figure for `CO[C@H]1/C=C/O[C@@]2(C)Oc3c(C)c(O)c4c(O)c(c(/C=N/N5CCN(C)CC5)c(O)c4c3C2=O)NC(=O)/C(C)=C\C=C\[C@H](C)[C@H](O)[C@@H](C)[C@@H](O)[C@@H](C)[C@H](OC(C)=O)[C@@H]1C` [RIFAMPIN] is 0.197 µg/mL.
